Test results reported in patent US10508113B2, “Inhibitors of tyrosine kinase 2 mediated signaling” (AbbVie Inc., priority 2018, dated 2019).

The compounds below were run against T1, Jak1 (Homo sapiens, UniProt P23458) (assay: Jak1 (PSTAT3 TF1) alpha screen assay: inhibition of IL-6 induced phosphorylation of STAT3 in TF1 cells). Conditions: calculated from tabulated EC50 data (Jak1 / Tyk2).
T1 construct: endogenous in cells; host or cells: TF1 cells
Format: cell-based
Protocol: 2. JAK1 (PSTAT3 TF1) ALPHA SCREEN ASSAY
IL-6 is known to transduce its signal through IL-6 receptor via Jak1. Activity against Jak1 was therefore measured by determining inhibition of IL-6 induced phosphorylation of STAT3 in TF1 cells.
Cell Type: TF1 Cells; Culture Medium: RPMI 1640 Medium, 2mM L-glutamine, 10% heat- inactivated fetal bovine serum (FBS), 10 mM hydroxyethyl piperazineethanesulfonic acid (HEPES), and 2 ng/mL recombinant human interleukin-6(IL-6); Assay Medium: Dulbecco's Modified Eagle Medium (DMEM) medium with 2 mM L-glutamine, 10 mM HEPES, 100 U/mL penicillin/streptomycin, 1.5 g/L sodium bicarbonate, 4.5 g/L glucose, 1 mM sodium pyruvate, 10% heat-inactivated FBS; Compound Preparation: Compounds are dissolved in 100% dimethyl sulfoxide (DMSO).
Day One—Starve Cells: 4 Flasks for one 384 plate (spin down @1000 rpm for 10 minutes and add RPMI 1640 Medium, 2 mM L-glutamine, 10% FBS, 10 mM HEPES with no IL-6 -incubate overnight).
Day Two—Compound Dilutions:
i. Manual 8-point 1:5 dilution curve: 5 mM top concentration dispensed in row A of a
Corning 96-well polypropylene plate, columns 2-12. DMSO dispensed in position A01 for low and high controls. Compounds were serially diluted 1:5 by adding 10 μL stock to […] DMSO down the plate.
ii. Media dilution of compounds: Serially diluted compounds were further diluted 1:12.5 in assay medium by adding 4 μL compound to 46 μL assay medium in a Corning 96-well polypropylene plate.
384 Alpha Screen Plate Set up: Transfer 2.5 μL/well of compound solution from assay media dilution plate. Replicates were vertical, one column of the 96-well dilution plate goes into one column on the 384-well plate twice. Plated 1×10^5 starved cells/well in 5 μL. Washed cells in 10 mL DMEM medium after spinning down. Brought cell pellet up in assay media. Counted live cells. Multiplied by dilution factor and 10,000 (constant) to get the concentration of viable cells. Multiplied by volume of assay media used to bring up cells to get the total number of live cells. Divided by 20,000,000 cells/mL to get the volume needed. Cells were plated at 5 μL/well in gray Alpha Screen 384-well plate. Spinned the plate to bring the contents to the bottom of the wells at 300 rpm for 60 seconds. Top final compound concentration: 25 μM. Sealed with adhesive and tapped gently. Incubated plate at 37° C. for 30 minutes. c. IL-6 Stimulation (pSTAT3)
Once cells were in incubator, immediately prepared working stock of IL-6 (100 ng/mL final concentration). IL-6 stock=10 μg/mL of IL-6 in phosphate buffered saline with 0.1% bovine serum albumin. Diluted 1:25 by adding 60 μL stock IL-6 to 1440 μL assay media. Added 2.5 μL IL-6 to each well. Spinned plate at 300 rpm briefly; tapped the plate gently before covering with an adhesive seal. Incubated plate at 37° C. for 30 minutes.
Added 2.5 μL of 5X Lysis buffer to each well. Incubated at room temperature on orbital shaker for 10 minutes.
e. Protein (A) Acceptor Beads Preparation:
Phosphorylated Signal Transducer and Activator of Transcription 3 (pSTAT3) was quantified using the PerkinElmer SureFire pSTAT3 (Tyrosine 705) Assay. Calculated total volume needed (wells×[…]×25%). Divided total volume by 5 to get volume of activation buffer. Subtracted volume of activation buffer from total volume and divide by 40 to get volume of acceptor beads (add last). Total volume−acceptor bead volume−activation buffer=volume of reaction buffer. Added 15 μL to each well and covered with foil. Shaked on orbital shaker for 2 hours at 500 rpm.
f. Streptavidin Donor Beads Preparation:
Calculated total volume needed (wells×[…]×25%). Divided total volume by 20 to get volume of donor beads (add last). Subtracted volume of donor beads from total volume to get volume of dilution buffer. Added 6 μL to each well and covered with foil. Shaked on orbital shaker overnight at 500 rpm.
Read plate on a Perkin Elmer Envision. […]

T1 sequence (P23458 whole entry): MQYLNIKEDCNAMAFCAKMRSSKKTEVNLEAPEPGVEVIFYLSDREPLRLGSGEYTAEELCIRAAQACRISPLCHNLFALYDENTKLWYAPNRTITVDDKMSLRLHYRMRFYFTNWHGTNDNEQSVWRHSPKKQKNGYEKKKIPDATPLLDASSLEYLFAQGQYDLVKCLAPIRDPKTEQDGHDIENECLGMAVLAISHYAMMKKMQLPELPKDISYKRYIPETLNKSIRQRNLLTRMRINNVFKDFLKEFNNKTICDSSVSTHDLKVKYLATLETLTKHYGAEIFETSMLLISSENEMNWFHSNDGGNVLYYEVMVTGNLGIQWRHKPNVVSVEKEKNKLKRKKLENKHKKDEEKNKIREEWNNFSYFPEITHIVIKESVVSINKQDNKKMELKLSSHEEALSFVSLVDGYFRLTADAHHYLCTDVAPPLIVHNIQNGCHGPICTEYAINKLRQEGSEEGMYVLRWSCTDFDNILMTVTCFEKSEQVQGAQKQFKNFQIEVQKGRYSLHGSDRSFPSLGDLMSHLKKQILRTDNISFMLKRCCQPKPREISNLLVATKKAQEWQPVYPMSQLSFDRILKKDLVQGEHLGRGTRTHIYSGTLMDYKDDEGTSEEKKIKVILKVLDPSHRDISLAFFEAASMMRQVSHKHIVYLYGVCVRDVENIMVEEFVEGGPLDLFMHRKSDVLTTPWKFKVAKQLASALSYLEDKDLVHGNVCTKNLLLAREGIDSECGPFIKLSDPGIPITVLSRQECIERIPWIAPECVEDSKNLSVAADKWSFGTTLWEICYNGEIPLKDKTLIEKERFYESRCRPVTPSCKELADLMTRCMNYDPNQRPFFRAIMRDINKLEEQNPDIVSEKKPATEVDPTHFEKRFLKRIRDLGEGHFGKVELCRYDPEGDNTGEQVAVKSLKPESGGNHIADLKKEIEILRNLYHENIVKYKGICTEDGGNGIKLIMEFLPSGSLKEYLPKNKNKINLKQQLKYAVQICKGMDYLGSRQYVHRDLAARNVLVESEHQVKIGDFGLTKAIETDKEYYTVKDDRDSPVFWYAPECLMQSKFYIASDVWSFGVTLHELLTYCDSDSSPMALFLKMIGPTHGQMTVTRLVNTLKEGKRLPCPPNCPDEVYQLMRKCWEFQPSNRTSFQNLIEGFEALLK

Structure (SMILES) | Tyk2 selectivity over Jak1
CO[C@]1(c2cc(C)cc(-c3cn(C)c4cnc(NC(N)=O)cc34)n2)CCOC1 [Example 1b.3, (S)-1-(3-(6-(3-methoxytetrahydrofuran-3-yl)-4-methylpyridin-2-yl)-1-methyl-1H-pyrrolo[2,3-c]pyridin-5-yl)urea] | 10-fold
CC[C@@]1(c2cccc(-c3cn(C)c4cnc(NC(C)=O)cc34)n2)CCOC1 [Example 2.3, (S)-N-(3-(6-(3-ethyltetrahydrofuran-3-yl)pyridin-2-yl)-1-methyl-1H-pyrrolo[2,3-c]pyridin-5-yl)acetamide] | 188-fold
COc1cc(-c2cn(C3COC3)c3cnc(NC(C)=O)cc23)nc([C@]2(OC)CCOC2)c1 [Example 5, (R)-N-(3-(4-methoxy-6-(3-methoxytetrahydrofuran-3-yl)pyridin-2-yl)-1-(oxetan-3-yl)-1H-pyrrolo[2,3-c]pyridin-5-yl)acetamide] | >901-fold
COc1cc(-c2cn([C@@H]3CCOC3)c3cnc(NC(C)=O)cc23)nc([C@]2(OC)CCOC2)c1 [Example 5.2, N-(3-(4-methoxy-6-((R)-3-methoxytetrahydrofuran-3-yl)pyridin-2-yl)-1-((R)-tetrahydrofuran-3-yl)-1H-pyrrolo[2,3-c]pyridin-5-yl)acetamide] | >641-fold
CO[C@]1(c2cc(OCC3COC3)cc(-c3cn(C)c4cnc(NC(C)=O)cc34)n2)CCOC1 [Example 6.2, (S)-N-(3-(6-(3-methoxytetrahydrofuran-3-yl)-4-(oxetan-3-ylmethoxy)pyridin-2-yl)-1-methyl-1H-pyrrolo[2,3-c]pyridin-5-yl)acetamide] | 50-fold
CO[C@@]1(c2cc(OC3COC3)cc(-c3cn(C)c4cnc(NC(C)=O)cc34)n2)CCOC1 [Example 8, (R)-N-(3-(6-(3-Methoxytetrahydrofuran-3-yl)-4-(oxetan-3-yloxy)pyridin-2-yl)-1-methyl-1H-pyrrolo[2,3-c]pyridin-5-yl)acetamide] | 244-fold
CO[C@@]1(c2cc(C(F)F)cc(-c3cn(C)c4cnc(NC(N)=O)cc34)n2)CCOC1 [Example 12.5, (R)-1-(3-(4-(difluoromethyl)-6-(3-methoxytetrahydrofuran-3-yl)pyridin-2-yl)-1-methyl-1H-pyrrolo[2,3-c]pyridin-5-yl)urea] | 909-fold
COc1cc(-c2cn(C)c3cnc(NC(N)=O)cc23)nc([C@@]2(OC)CCOC2)c1 [Example 12.7, (S)-1-(3-(4-methoxy-6-(3-methoxytetrahydrofuran-3-yl)pyridin-2-yl)-1-methyl-1H-pyrrolo[2,3-c]pyridin-5-yl)urea] | 81-fold
CO[C@@]1(c2cc(C#N)cc(-c3cn([C@@H]4CC4(F)F)c4cnc(NC(N)=O)cc34)n2)CCOC1 [Example 12a.3, 1-(3-(4-cyano-6-((R)-3-methoxytetrahydrofuran-3-yl)pyridin-2-yl)-1-((R)-2,2-difluorocyclopropyl)-1H-pyrrolo[2,3-c]pyridin-5-yl)urea] | >1515-fold
CO[C@@]1(c2cc(C(F)F)cc(-c3cn([C@@H]4CCOC4)c4cnc(NC(N)=O)cc34)n2)CCOC1 [Example 12b.2, 1-(3-(4-(difluoromethyl)-6-((R)-3-methoxytetrahydrofuran-3-yl)pyridin-2-yl)-1-((R)-tetrahydrofuran-3-yl)-1H-pyrrolo[2,3-c]pyridin-5-yl)urea] | 2667-fold
CO[C@@]1(c2cc(C(F)F)cc(-c3cn([C@H]4CCOC4)c4cnc(NC(N)=O)cc34)n2)CCOC1 [Example 12b.3, 1-(3-(4-(difluoromethyl)-6-((R)-3-methoxytetrahydrofuran-3-yl)pyridin-2-yl)-1-((S)-tetrahydrofuran-3-yl)-1H-pyrrolo[2,3-c]pyridin-5-yl)urea] | 1214-fold
CO[C@@]1(c2cc(C(F)F)cc(-c3cn(C4COC4)c4cnc(NC(N)=O)cc34)n2)CCOC1 [Example 12b.4, (R)-1-(3-(4-(difluoromethyl)-6-(3-methoxytetrahydrofuran-3-yl)pyridin-2-yl)-1-(oxetan-3-yl)-1H-pyrrolo[2,3-c]pyridin-5-yl)urea] | 889-fold
Cn1cc(-c2cccc(C3(O)COC3)n2)c2cc(NC(N)=O)ncc21 [Example 14, 1-(3-(6-(3-hydroxyoxetan-3-yl)pyridin-2-yl)-1-methyl-1H-pyrrolo[2,3-c]pyridin-5-yl)urea] | 20-fold
NC(=O)Nc1cc2c(-c3cccc(C4(O)COC4)n3)cn([C@@H]3CCOC3)c2cn1 [Example 15, (R)-1-(3-(6-(3-Hydroxyoxetan-3-yl)pyridin-2-yl)-1-(tetrahydrofuran-3-yl)-1H-pyrrolo[2,3-c]pyridin-5-yl)urea] | 80-fold
CO[C@@]1(c2cc(C)cc(-c3cn([C@H]4C[C@H](C#N)C4)c4cnc(NC(C)=O)cc34)n2)CCOC1 [Example 17.4, N-(1-((trans)-3-cyanocyclobutyl)-3-(6-((R)-3-methoxytetrahydrofuran-3-yl)-4-methylpyridin-2-yl)-1H-pyrrolo[2,3-c]pyridin-5-yl)acetamide] | 157-fold
CO[C@@]1(c2cc(C)cc(-c3cn([C@H]4C[C@@H](C#N)C4)c4cnc(NC(C)=O)cc34)n2)CCOC1 [Example 17.5, N-(1-((cis)-3-cyanocyclobutyl)-3-(6-((R)-3-methoxytetrahydrofuran-3-yl)-4-methylpyridin-2-yl)-1H-pyrrolo[2,3-c]pyridin-5-yl)acetamide] | 6400-fold
COc1cc(-c2cn(C)c3cnc(NC(C)=O)cc23)nc([C@]2(OC)CCOC2)c1 [Example 20, (R)-N-(3-(4-Methoxy-6-(3-methoxytetrahydrofuran-3-yl)pyridin-2-yl)-1-methyl-1H-pyrrolo[2,3-c]pyridin-5-yl)acetamide] | 328-fold
